Laboratory results from paper PMC11677243, “Target protein identification in live cells and organisms with a non-diffusive proximity tagging system” (eLife, 2024).

Experiments:
HEK293T cells [1] = assay: POST-IT^DC661-H1 target-ID by SILAC (LC-MS/MS, DC660 competition); assay type: cell-based, Homo sapiens; details: heavy: 200 nM DC661-H1, light: DC661-H1 (200 nM) and DC660 (2 µM)
Protocol: A stable HEK293T cells expressing the POST-IT system was generated using the PiggyBac transposon system. Briefly, HEK293T cells on a 60 mm dish were co-transfected with 8 µg of PB-puro-CMV-POST-IT-Tet-SBP^K4R-sPup^K61R-iresGFP and 2 µg of the Super PiggyBac Transposase expression vector (PB200PA-1, System Biosciences, USA). Four days later, cells were treated with 5 µg/ml puromycin for about 2 weeks. Media containing puromycin were changed every 3–4 days.
The stable cell line was cultured in SILAC DMEM (280001200, Silantes, Germany) without arginine, lysine, and glutamine, supplemented with 10% dialyzed FBS (C3820-0100, VivaCell Biosciences, China) and 2 mM glutamine. The SILAC medium included 600 mg/l proline (P120032, aladdin, China) to prevent the conversion of arginine to proline ([Bendall et al., 2008]). […]
The expression of POST-IT was induced by the addition of 100 ng/ml doxycycline. […] Cell debris was removed by centrifugation, and protein concentration was determined by the BCA assay. […]
Excised gels were sliced into small pieces of ~1 mm^3, rinsed three times with Milli-Q water, decolorized with 50% acetonitrile and 100 mM NH4HCO3, and dehydrated with 100% acetonitrile. […] The resulting tryptic peptides were analyzed by LC-MS/MS at the Institute of Hydrobiology (Chinese Academy of Sciences, Wuhan, China). […]

LC3-II [2] = assay: Autophagy inhibition by LC3-II western blot in HEK293T cells; assay type: cell-based, Homo sapiens; details: 12 hr
Text: (§1) Cells transfected and/or treated with different compounds were harvested at the end of treatment.

LC3-II [3] = assay: Autophagy inhibition by LC3-II western blot in A375 cells; assay type: cell-based, Homo sapiens; details: 12 hr
Text: as §1

VPS37C-V5 = target: T1, VPS37C-V5 (Homo sapiens, UniProt A5D8V6); assay: POST-IT labeling and streptavidin pulldown of VPS37C-V5 in HEK293T cells; assay type: cell-based; details: 200 nM DC661-H1, 24 hr
T1 construct: expressed in transfected cells; host or cells: HEK293T
T1 sequence (A5D8V6 whole entry): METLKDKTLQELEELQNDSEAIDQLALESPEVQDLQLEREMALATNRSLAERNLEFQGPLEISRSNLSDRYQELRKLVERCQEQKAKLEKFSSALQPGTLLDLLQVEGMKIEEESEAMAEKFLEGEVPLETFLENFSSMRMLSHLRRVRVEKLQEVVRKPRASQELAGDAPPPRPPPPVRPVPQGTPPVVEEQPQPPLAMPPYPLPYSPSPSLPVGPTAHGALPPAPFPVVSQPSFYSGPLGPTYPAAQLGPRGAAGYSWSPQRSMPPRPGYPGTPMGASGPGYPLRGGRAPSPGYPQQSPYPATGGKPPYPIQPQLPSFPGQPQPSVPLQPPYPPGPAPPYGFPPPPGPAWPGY

SEPHS2 = target: T2, SEPHS2 (Homo sapiens, UniProt Q99611, U60C); assay: MST binding to Cy5-labeled SEPHS2; details: Cy5-labeled recombinant SEPHS2; n = 2, mean ± s.d.
T2 construct: SBPII (N); 6xHis (pET28a backbone, Ni column purification); made in house; host or cells: E. coli BL21(DE3)
T2 sequence (Q99611 with tags, fused parts or gaps U60C): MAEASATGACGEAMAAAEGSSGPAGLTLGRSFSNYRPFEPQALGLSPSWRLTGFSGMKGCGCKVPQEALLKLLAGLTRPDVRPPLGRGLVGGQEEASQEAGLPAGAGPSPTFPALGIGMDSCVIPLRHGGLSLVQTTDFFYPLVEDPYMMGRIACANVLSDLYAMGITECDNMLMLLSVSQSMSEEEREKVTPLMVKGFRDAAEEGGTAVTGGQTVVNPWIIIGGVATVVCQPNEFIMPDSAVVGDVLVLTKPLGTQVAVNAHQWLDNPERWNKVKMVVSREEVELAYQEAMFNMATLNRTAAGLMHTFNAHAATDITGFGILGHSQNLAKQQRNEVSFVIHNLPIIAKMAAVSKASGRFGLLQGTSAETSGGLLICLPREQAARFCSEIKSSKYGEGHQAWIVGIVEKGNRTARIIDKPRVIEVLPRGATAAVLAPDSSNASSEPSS

SRC [4] = target: T3, SRC (Homo sapiens, UniProt P12931); assay: In cellulo pupylation and pulldown assay of SRC in HEK293T cells; assay type: cell-based; details: 250 nM DH5
T3 construct: endogenous in cells; host or cells: HEK293T
T3 sequence (P12931 2-536): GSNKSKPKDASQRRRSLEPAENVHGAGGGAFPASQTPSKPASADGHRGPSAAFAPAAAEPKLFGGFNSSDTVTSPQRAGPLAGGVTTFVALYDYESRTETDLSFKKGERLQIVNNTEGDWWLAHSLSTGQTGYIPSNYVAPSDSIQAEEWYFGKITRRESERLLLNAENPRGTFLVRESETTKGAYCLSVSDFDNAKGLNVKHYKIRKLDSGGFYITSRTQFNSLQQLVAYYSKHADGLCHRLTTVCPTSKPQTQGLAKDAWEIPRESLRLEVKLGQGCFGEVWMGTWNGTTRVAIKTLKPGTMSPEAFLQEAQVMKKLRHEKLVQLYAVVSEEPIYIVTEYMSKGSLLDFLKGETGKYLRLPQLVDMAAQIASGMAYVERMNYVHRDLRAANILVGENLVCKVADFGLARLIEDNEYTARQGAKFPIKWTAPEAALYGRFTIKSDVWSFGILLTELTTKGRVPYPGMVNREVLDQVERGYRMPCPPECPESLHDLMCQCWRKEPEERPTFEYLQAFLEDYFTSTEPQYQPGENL

HEK293T cells [5] = assay: POST-IT^DH5 target-ID proteomics (LC-MS/MS, dasatinib competition); assay type: cell-based, Homo sapiens; details: for FC(DH5/DASA) / log2(FC(DH5/DASA)): DH5 vs DH5 + dasatinib competition, imputed data
Protocol: HEK293T cells were plated on two 100 mm dishes for each condition and co-transfected next day with 8 µg of pTol2-HA-Halo^8KR-PafA^S126A,K172R and 16 µg of pEF6a-SBP^K4R-sPup^K61R per dish. […] Cells were harvested in 1 ml of RIPA buffer, supplemented with a protease inhibitor cocktail for each dish. Following brief sonication, cell debris was removed by centrifugation at maximum speed for 10 min at 4°C. The supernatants were collected and mixed with 200 µl of streptavidin magnetic beads that had been prewashed with RIPA buffer. […] The eluates were combined and precipitated using trichloroacetic acid (TCA)/DOC. The resultant protein pellets were neutralized with 1 M Tris-HCl pH 8.8, and separated by Tricine-SDS-PAGE, and the CBB-stained bands were excised, with those smaller than 10 kD being removed, and processed for mass analysis.
Excised gels were sliced into small pieces of ~1 mm^3, rinsed three times with Milli-Q water, decolorized with 50% acetonitrile and 100 mM NH4HCO3, and dehydrated with 100% acetonitrile. The dehydrated gel pieces were then reduced with 10 mM DTT in 50 mM NH4HCO3 at 56°C for 1 hr, carboxymethylated with 55 mM iodoacetamide in the dark at room temperature for 30 min, and digested with trypsin at a 1:50 enzyme to protein mass ratio at 37°C overnight. The peptides were collected, desalted with ZipTipC18 (ZTC18S096, Millipore, USA), dried under vacuum, and stored at –20°C until MS analysis. The resulting tryptic peptides were analyzed by LC-MS/MS at the Institute of Hydrobiology (Chinese Academy of Sciences, Wuhan, China). LC-MS/MS data acquisition was performed using a Q Exactive HF-X mass spectrometer coupled with an Easy-nLC 1200 system (Thermo Fisher Scientific, USA). The peptide mixtures were initially loaded onto a C18 trap column and subsequently separated on a C18 reverse-phase analytical HPLC column, Acclaim PepMap C18 column (75 µm ID ×250 mm, 2 µm particle size, 100 Å pore size, Thermo Fisher Scientific), employing a 100 min gradient program with mobile phase A (0.1% formic acid) and mobile phase B (80% acetonitrile, 0.1% formic acid). The gradient program was as follows: 0–65 min, 5–23% B; 65–85 min, 23–45% B; 85–86 min, 45–90% B; 87–90 min, 90% B; 90–90.1 min, 90–5% B; 90.1–100 min, 5% B, maintained at a constant flow rate of 300 nl/min. For data-dependent acquisition mode analysis, each scan cycle consisted of one full-scan mass spectrum (R = 60 K, AGC = 3e6, max IT = 20 ms, scan range = 350–1800 m/z) followed by 20 MS/MS events (R = 15 K, AGC = 2e5, max IT = 50 ms). The higher-energy collisional dissociation collision energy was set to 28 for ion fragmentation. The isolation window for precursor selection was set to 1.6 Da. The former target ion exclusion was set for 25 s.
For the identification of DH5 targets, raw MS data were analyzed using MaxQuant (version 2.1.0.0, Max Planck Institute of Biochemistry; [Cox and Mann, 2008]) with the Andromeda search engine. The MS data were aligned to the UniProt human protein database (Proteome ID: UP000005640). […] Variable modifications included oxidation (M), acetyl (Protein N-term), deamidation (NQ), and GGE (K). The false discovery rate for both peptide and protein identification was set at 1%. The ‘Match Between run’ option were enabled, with other settings at their default values. Missing values from identified proteins were filled through random imputation and further analyzed statistically to derive p values through unpaired SAM analysis using PANDA-view ([Chang et al., 2018]). Proteins commonly present under DMSO condition were considered nonspecific background interactions and excluded from further analysis.

SRC [6] = target: T4, SRC (Danio rerio, UniProt Q1JPZ3); assay: In vivo pupylation assay using zebrafish embryos; details: 10 µM DH5, 24 hr, versus DMSO
T4 construct: from tissue; host or cells: whole zebrafish embryos (AB strain) injected with the POST-IT plasmid
T4 sequence (Q1JPZ3 whole entry): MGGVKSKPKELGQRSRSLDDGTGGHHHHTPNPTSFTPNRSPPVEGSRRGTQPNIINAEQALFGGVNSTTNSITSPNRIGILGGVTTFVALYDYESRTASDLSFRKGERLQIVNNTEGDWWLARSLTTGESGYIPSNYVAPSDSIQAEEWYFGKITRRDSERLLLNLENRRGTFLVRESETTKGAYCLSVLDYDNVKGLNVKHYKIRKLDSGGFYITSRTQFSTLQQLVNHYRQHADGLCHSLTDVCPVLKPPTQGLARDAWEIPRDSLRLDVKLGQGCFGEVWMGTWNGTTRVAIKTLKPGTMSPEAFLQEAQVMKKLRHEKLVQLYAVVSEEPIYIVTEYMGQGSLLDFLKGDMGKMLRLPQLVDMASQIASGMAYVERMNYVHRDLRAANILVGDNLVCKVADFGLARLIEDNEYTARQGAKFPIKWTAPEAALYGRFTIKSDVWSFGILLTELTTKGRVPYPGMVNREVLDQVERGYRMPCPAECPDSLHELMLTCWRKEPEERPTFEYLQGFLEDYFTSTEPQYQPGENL
Protocol: To express POST-IT in early zebrafish embryos, 20 pg of pUbi-QFGal4-2A-3×Flag-POST-IT plasmid and 25 pg of transposase mRNA were injected into an embryo at the one-cell stage. The next day, GFP-positive and live embryos were selected, dechorionated with Pronase E (HY-114158, MedChemExpress, USA), and divided into two groups of approximately 1000 embryos each. One group was treated with DMSO and the other with 10 µM DH5 for 24 hr. The embryos were then collected, rinsed with PBS, and lysed in cell lysis buffer using a motorized plastic pestle. The resulting lysates were cleared by centrifugation, and protein concentrations were measured using the BCA assay. Samples were diluted to 2 mg/ml in 1 ml, mixed with 200 µl of prewashed streptavidin magnetic beads, and incubated at 4°C for 3 hr. The beads were washed five times with wash buffer A. Proteins were eluted with 2×SDS sample buffer and subsequently processed for western blot analysis.

SRC(251-536) = SRC(251-536) (Homo sapiens, UniProt P12931); assay: SRC kinase activity assay (Kinase-Lumi luminescent)
Sequence of SRC(251-536) (P12931 251-536): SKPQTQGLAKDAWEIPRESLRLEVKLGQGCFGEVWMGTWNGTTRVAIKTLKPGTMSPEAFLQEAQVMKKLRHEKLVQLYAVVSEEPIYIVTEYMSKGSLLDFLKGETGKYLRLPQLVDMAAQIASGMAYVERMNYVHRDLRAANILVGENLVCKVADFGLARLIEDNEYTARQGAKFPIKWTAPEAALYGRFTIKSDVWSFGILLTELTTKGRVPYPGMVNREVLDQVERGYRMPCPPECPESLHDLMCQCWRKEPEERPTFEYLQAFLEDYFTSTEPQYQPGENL

Structure (SMILES)	target proteins identified by POST-IT^DC661-H1 (SILAC) (HEK293T cells [1])	levels of LC3-II band (autophagy inhibition) (LC3-II [2])	levels of LC3-II band (autophagy inhibition) (LC3-II [3])	enrichment of VPS37C-V5 after streptavidin pulldown (VPS37C-V5)	Kd (SEPHS2) [µM]	POST-IT pulldown of endogenous SRC (SRC [4])	target proteins identified by POST-IT^DH5 (HEK293T cells [5]; HEK293T, 250 nM DH5 with or without 2.5 µM dasatinib, 24 hr)	FC(DH5/DASA) (HEK293T cells [5]; protein AAGAB)	log2(FC(DH5/DASA)) (HEK293T cells [5]; protein AAGAB)	FC(DH5/DASA) (HEK293T cells [5]; protein AAK1)	log2(FC(DH5/DASA)) (HEK293T cells [5]; protein AAK1)	FC(DH5/DASA) (HEK293T cells [5]; protein AAMDC)	log2(FC(DH5/DASA)) (HEK293T cells [5]; protein AAMDC)	FC(DH5/DASA) (HEK293T cells [5]; protein AAR2)	log2(FC(DH5/DASA)) (HEK293T cells [5]; protein AAR2)	FC(DH5/DASA) (HEK293T cells [5]; protein AARS)	log2(FC(DH5/DASA)) (HEK293T cells [5]; protein AARS)	enrichment of endogenous SRC by POST-IT in live embryos (SRC [6])	IC50 (SRC(251-536)) [µM]
O=C(CN(CCCCCCNc1ccnc2cc(Cl)ccc12)CCCCCCNc1ccnc2cc(Cl)ccc12)NCCCCCNC(=O)OCCOCCOCCOC(=O)NCCOCCOCCCCCCCl [DC661-H1]	identified several target proteins directly linked to autophagy regulation	significantly increased	significantly increased	substantially enriched	–	–	–	–	–	–	–	–	–	–	–	–	–	–	–
Cc1nc(Nc2ncc(C(=O)Nc3c(C)cccc3Cl)s2)cc(N2CCN(CCOC(=O)NCCCCCNC(=O)OCCOCCOCCOC(=O)NCCOCCOCCCCCCCl)CC2)n1 [DH5, 23-Chloro-10-oxo-3,6,9,14,17-pentaoxa-11-azatricosyl(2-(4-(6-((5-((2-chloro-6-methylphenyl)carbamoyl)thiazol-2-yl)amino)-2-methylpyrimidin-4-yl)piperazin-1-yl)ethyl) pentane-1,5-diyldicarbamate]	–	–	–	–	11.6 ± 5.7	efficiently pull down endogenous SRC	eight known target proteins (FYN, RIPK2, MAPK14, ABL2, ABL1, CSK, LYN, and SRC) with significant enrichment	1.3259	0.4070	2.0012	1.0009	1.9368	0.9537	1.5565	0.6383	1.1988	0.2616	marked enrichment	0.452
